Test [1] concerns co-stimulatory molecules CD40, CD80, CD86 and MHCII. Briefly: Co-stimulatory molecules in lung dendritic cells, E. coli-EV-induced model (FACS). The format is in vivo, mice. Conditions: 1 mg/kg twice a day, FIG. 5. How it is done:
In order to examine whether the extract of the present invention has the effect of inhibiting the expression of co-stimulatory molecules in dendritic cells isolated from the lung tissue of an E. coli-EV-induced asthma/chronic obstructive pulmonary disease model, the following test was performed.
Specifically, a portion of the lung tissue obtained in Test Example 8-4 was cut finely with a blade, and then incubated with 5 ml of 1× Trypsin-EDTA and 1000 units of collagenase at 37 °C for 10 minutes. Then, the tissue was passed through a 100 μm mesh to collect only immune cells, and the cells were double-stained with each of the dendritic cell marker CD11c and the co-stimulatory molecules CD40, CD80, CD86 and MHCII (major histocompatibility complex II). Next, the expression levels of the co-stimulatory molecules in the dendritic cells were measured using FACS (fluorescence activated cell sorter), and the results of the measurement are shown in FIG. 5.

Test [2] concerns the target T1, 5-lipoxygenase (Rattus norvegicus, UniProt P12527).
T1 construct: rat basophilic leukemia cells (RBL-1) were stabilized using serum-free RPMI medium; endogenous in cells; host or cells: RBL-1 (rat basophilic leukemia cells)
Briefly: 5-Lipoxygenase inhibitory activity (leukotriene production in RBL-1 cells, cysteinyl leukotriene EIA). The format is cell-based. Conditions: 2 μM; RBL-1 cells; read-out: 5-lipoxygenase inhibition rate(%). How it is done: Specifically, rat basophilic leukemia cells (RBL-1) were stabilized using serum-free RPMI medium at 37° C., and each of the extracts and arachidonic acid as a substrate were added thereto and incubated for 15 minutes to produce leukotriene. The amount of the produced leukotriene was measured using a cysteinyl leukotriene EIA kit. As comparative drugs, the 5-lipoxygenase inhibitors zileuton and montelukast were used.

This note sets out measurements from patent publication US20140030368A1, “COMPOSITION FOR PREVENTING OR TREATING A RESPIRATORY DISEASE CONTAINING A MIXED HERBAL EXTRACT OF CNIDIUM OFFICINALE ROOT AND POLYGONI CUSPIDATI ROOT” (WHANIN PHARMACEUTICAL CO., LTD., priority 2011, published 2014).

In general, inhibition refers to the share of the control response that was lost under treatment.

T1 sequence (P12527 whole entry): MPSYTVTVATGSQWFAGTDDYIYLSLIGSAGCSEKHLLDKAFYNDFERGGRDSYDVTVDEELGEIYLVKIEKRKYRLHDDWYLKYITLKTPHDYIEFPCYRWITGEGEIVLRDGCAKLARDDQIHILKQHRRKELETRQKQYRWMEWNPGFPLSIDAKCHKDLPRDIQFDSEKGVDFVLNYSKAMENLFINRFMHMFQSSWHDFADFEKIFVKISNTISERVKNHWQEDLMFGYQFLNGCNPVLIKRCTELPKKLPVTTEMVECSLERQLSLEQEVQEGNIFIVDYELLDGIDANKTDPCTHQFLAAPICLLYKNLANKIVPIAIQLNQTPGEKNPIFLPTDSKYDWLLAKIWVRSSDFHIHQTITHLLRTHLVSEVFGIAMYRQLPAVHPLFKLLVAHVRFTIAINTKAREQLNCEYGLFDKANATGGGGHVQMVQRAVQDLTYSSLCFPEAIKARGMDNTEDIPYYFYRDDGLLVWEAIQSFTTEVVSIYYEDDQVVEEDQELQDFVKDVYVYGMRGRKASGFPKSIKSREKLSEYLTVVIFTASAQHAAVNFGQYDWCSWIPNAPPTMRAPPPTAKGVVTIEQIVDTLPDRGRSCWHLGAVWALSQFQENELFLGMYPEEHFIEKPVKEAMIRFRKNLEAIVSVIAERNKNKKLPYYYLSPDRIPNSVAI

For the molecule `C[C@@H]1C[C@H]2[C@@H]3CCC4=CC(=O)C=C[C@]4(C)[C@@]3(F)[C@@H](O)C[C@]2(C)[C@@]1(O)C(=O)CO` [Dexamethason, dexamethason], the “expression levels of the co-stimulatory molecules in the dendritic cells” value in test [1] is “a decrease in the expression of CD86 and MHCII”.
As to `CC(C)(O)c1ccccc1CC[C@@H](SCC1(CC(=O)O)CC1)c1cccc(/C=C/c2ccc3ccc(Cl)cc3n2)c1` [montelukast], the inhibition at 2 µM in test [2] worked out at 45%.
